From patent US20080287546A1, “Quorum Sensing Modulators” (priority 2005, published 2008)

Experiments:
[1] = system: LasR dependent quorum sensing controlled promoter, prsaL (reporter strain MW1.pUM15); assay: Signal Reception Assay (SRA), activation of the reporter in the absence of an activating signal; format: cell-based, Pseudomonas aeruginosa; conditions: for activation of the reporter (agonist activity): compound at 100 μM, absence of an activating signal, SRA, MW1.pUM15
Excerpt: (§1) The CSA yields a fluorescent signal reporting both signal synthesis and signal reception. The SRA yields a fluorescent signal due to signal reception. Compounds affecting signal reception can be detected by SRA. The SRA can detect compounds that modulate quorum sensing by inhibiting signal reception or activating signal reception. Inhibitor compounds are identified by performing the SRA with exogenous autoinducer at a concentration of half maximal activation and detecting changes in fluorescence indicative of inhibition of signal reception. Activator compounds are identified by performing the SRA in the absence of exogenous autoinducer.
The plasmid pUM15 carries a YFP reporter under control of a LasR dependent quorum sensing controlled promoter, prsaL. When the plasmid is harbored by MW1, a strain lacking the ability to produce acylated homoserine lactones, the reporter is induced only in the presence of exogenous autoinducer. This is referred to as the Signal Reception Assay, as only those compounds that modulate signal reception will be detected.
Cells were grown in LB with 50 mM 3-(N-morpholino)propanesulfonic acid (MOPS) pH 7.0, 300 μg/mL carbenicillin. A single colony of MW1.pUM15 from a freshly struck plate was used to inoculate a starter culture and grown shaking at 30° C. not above an absorbance at 600 nm (A600) of 1.5. Cells were subcultured to A600 of 0.05 and grown shaking at 37° C. for 1-2 h. These mid-logarithmic cells were then added to dried down 3-oxo-C12-HSL to result in a final concentration of 0.3 μM. Induced cells were pipetted into wells containing the test compound. Uninduced cells were included as a control for the assay window. When the assay was used to characterize a potential activator, no homoserine lactone was added.
Nanoplate format: Assay reagents were dispensed with the flying reagent dispenser, FRD (Vertex Pharmaceuticals Incorporated, San Diego, Calif.). An aliquot of 1.5 μL reporter culture was added to wells in 3,456-well plates (3456 plates) and grown for 8-12 h before reading fluorescence with the topography-compensating plate reader, tcPR (Vertex Pharmaceuticals Incorporated, San Diego, Calif.). DR96 format: an aliquot of 50 μL culture was added to 96 well plate and grown for 6-8 h. Fluorescence was read with a SpectroFluor Plus plate reader (Tecan US, Durham, N.C.).
In all formats, plates were sealed in a humidified container and incubated staticly at 37° C. Fluorescence measurements were made with an excitation wavelength of 485 nm and emission wavelength of […]. To evaluate growth in the presence of test compound, the absorbance at 620 nm was also recorded.
The compounds in Table 2 were purchased from Chembridge Corp. (San Diego, Calif.), Specs (Wakefield, R.I.), Interbioscreen Ltd. (Moscow, Russia) and Chemical Diversity Labs, Inc. (San Diego, Calif.), and were characterized with the reporter strain MW1.pUM15 in both microtiter plate format and a shaking tube format. […] The tube format was performed to eliminate plate effects that may mask low levels of inhibition.
In both formats, the compounds were tested for (1) activation of the reporter in the absence of an activating signal, and (2) inhibition of the reporter in the presence of 0.3 μM 3-oxo-C12-HSL. All compounds were tested at 100 μM for their ability to activate or inhibit quorum sensing using the SRA assay. […]

[2] = system: LasR dependent quorum sensing controlled promoter, prsaL (reporter strain MW1.pUM15); assay: Signal Reception Assay (SRA), inhibition of the reporter in the presence of 0.3 μM 3-oxo-C12-HSL; format: cell-based, Pseudomonas aeruginosa; conditions: compound at 100 μM
Excerpt: as §1
The plasmid pUM15 carries a YFP reporter under control of a LasR dependent quorum sensing controlled promoter, prsaL. […] This is referred to as the Signal Reception Assay, as only those compounds that modulate signal reception will be detected.
Cells were grown in LB with 50 mM 3-(N-morpholino)propanesulfonic acid (MOPS) pH 7.0, 300 μg/mL carbenicillin. A single colony of MW1.pUM15 from a freshly struck plate was used to inoculate a starter culture and grown shaking at 30° C. not above an absorbance at 600 nm (A600) of 1.5. […]
Nanoplate format: Assay reagents were dispensed with the flying reagent dispenser, FRD (Vertex Pharmaceuticals Incorporated, San Diego, Calif.). […] Fluorescence was read with a SpectroFluor Plus plate reader (Tecan US, Durham, N.C.). […]

Cc1ccccc1C(=O)Oc1c(Br)cc(Br)cc1CNC(=O)c1ccccc1Cl [Compound 3]
activation of the reporter (agonist activity) [1]: activating effects

O=C(NCc1cc(Br)cc(Br)c1OC(=O)c1ccccc1[N+](=O)[O-])c1ccccc1Cl [Compound 5]
activation of the reporter (agonist activity) [1]: activating effects
activation efficacy (FIG. 2), compared with 3-oxo-C12-HSL ([1]; fluorescence in the SRA as a function of concentration, in the presence of 0.75% DMSO): an activating effect equal to 3-oxo-C12-HSL but at reduced concentrations

O=C(Nc1ccccc1NC(=O)c1cccc(Cl)c1)c1cccc(Cl)c1 [Compound 1]
inhibition of the reporter (antagonist activity) [2]: largest degree of inhibition

O=C(Oc1c(Br)cc(Br)cc1CNC(=O)c1ccccc1Cl)c1ccc(F)cc1 [Compound 2]
activation of the reporter (agonist activity) [1]: activating effects

Cc1cc(C)c(OC(=O)c2ccc(Cl)cc2Cl)c(CNC(=O)c2ccccc2Cl)c1 [Compound 4]
activation of the reporter (agonist activity) [1]: activating effects
